Columns and labels:
Assay type in all cases: in vivo
Aphis fabae = assay: Field trials (PGRO) on vining peas, naturally infested
Protocol: (§1) Field trials for peptide SB-P-65, unformulated, against various insects were conducted by third-party organisations PGRO and AgriScience.

bees = assay: Bee oral toxicity test adapted from OECD Test No. 247 (Bumblebee, Acute Oral Toxicity Test); conditions: % survival after 96 hours of application; FIG. 10
Protocol: Bee oral testing protocol was carried out adapted from OECD Test No. 247: Bumblebee, Acute Oral Toxicity Test. The toxicity of SB-P-65 was compared with a negative control of sucrose or vehicle, and with a current commercial insecticide Imidacloprid.

Aphis gossypii = assay: Field trials (AgriScience) on cotton and melon, naturally infested
Protocol: as §1

Myzus persicae [1] = assay: Field trials by third-party organisations
Protocol: as §1

Myzus persicae [2] = assay: Leaf dip assay (IRAC susceptibility test method 019), mortality assessment; conditions: unformulated or with Silwet-408 adjuvant; mortality assessed at 72, 96 and 120 hours; FIGS. 6-8
Protocol: The assay was carried out based on IRAC susceptibility test method 019 (irac-online.org/methods/aphids-adultnymphs/).
Fill a small 4 cm wide 3 cm high dish with a 1% agar treatment solution of the active chemical or control (ensuring 1 cm gap between the agar and the lid) and leave to set. Dip a 2.5 cm leaf disc into 3 ml of treatment solution allowing the treatment to coat the leaf. Leave the disc to dry for 1 hour and place onto the set agar. Place insects (M. persicae aphids) onto each of the leaf discs. Each unit is sealed with a close-fitting, ventilated lid. Place the agar dishes in a small plastic tray lined with moist tissue paper and ensure the water trays in the bottom of the incubator are filled with clean water and place within the incubator. An assessment of mortality is made at 72, 96 and 120 hours. Leaf dip assays were performed with SB-P-65, and compared to a negative control vehicle and a current commercial insecticide Spirotetramat. The activity of SB-P-65 is shown in FIGS. 6-8; SB-P-65 has good activity whilst being eco-friendly and targeted to specific pests unlike broad spectrum chemical insecticides such as Spirotetramat.

[3] = versus Stealth/Aphox, Teppeki/Aphox, Profil Extra, Hallmark Zeon

Question: CC(C)[C@H](NC(=O)[C@@H](NC(=O)[C@H](CCCCN)NC(=O)[C@H](CCC(N)=O)NC(=O)[C@@H](N)CCCNC(=N)N)[C@@H](C)O)C(=O)N[C@@H](Cc1ccccc1)C(=O)N[C@@H](CO)C(=O)N[C@@H](CO)C(=O)N[C@@H](Cc1c[nH]c2ccccc12)C(=O)NCC(N)=O [SB-P-65, [Hy]-RQKTVFSSWG-[NH2]] was tested. Which “efficacy in field trials against Aphis fabae” value (Aphis fabae; unformulated, vining peas, real-world conditions, FIGS. 11, 14) did it give?
Answer: The value was “good efficacy”.

Question: What about the “efficacy relative to commercial insecticides, Aphis fabae field trials” value (Aphis fabae; [3]) of the same compound?
Answer: Its value is “comparably to commercial insecticides”.

Question: And the “toxicity to bees (oral), compared to Imidacloprid” value (bees)?
Answer: The value was “far lower toxicity”.

Question: And the “efficacy in field trials against Aphis gossypii” value (Aphis gossypii; unformulated, cotton, melon, real-world conditions, FIGS. 12, 13)?
Answer: The value was “good efficacy”.

Question: What about the “efficacy relative to commercial insecticides, Aphis gossypii field trials” value (Aphis gossypii; [3]) of the same compound?
Answer: Its value is “comparably to commercial insecticides”.

Question: What about the “efficacy in field trials against Myzus persicae” value (Myzus persicae [1]; unformulated, real-world conditions) of the same compound?
Answer: The value was “good efficacy”.

Question: And the “efficacy relative to commercial insecticides, Myzus persicae field trials” value (Myzus persicae [1]; [3])?
Answer: Its value is “comparably to commercial insecticides”.

Question: And the “activity against Myzus persicae (mortality) in leaf dip assay” value (Myzus persicae [2])?
Answer: The value was “good activity”.

From patent publication US12139556B2, “Insect neuropeptides 6” (Solasta Bio Limited, priority 2022, dated 2024)
